{"source": "paper PMC3524753", "about": "“SU11652 Inhibits tyrosine kinase activity of FLT3 and growth of MV-4-11 cells” (Journal of Hematology & Oncology, 2012)", "experiment_in_all_cases": "in vitro kinase assay with GST-FLT3S substrate, anti-phosphotyrosine immunoblot", "assay_type_in_all_cases": "biochemical", "key": {"[1]": {"biological_target": "T1, FLT3 (FMS-like tyrosine kinase 3) (Homo sapiens, UniProt P36888)", "T1 construct": "catalytic domain of wild type FLT3", "T1 sequence (P36888 564-993 limits assumed)": "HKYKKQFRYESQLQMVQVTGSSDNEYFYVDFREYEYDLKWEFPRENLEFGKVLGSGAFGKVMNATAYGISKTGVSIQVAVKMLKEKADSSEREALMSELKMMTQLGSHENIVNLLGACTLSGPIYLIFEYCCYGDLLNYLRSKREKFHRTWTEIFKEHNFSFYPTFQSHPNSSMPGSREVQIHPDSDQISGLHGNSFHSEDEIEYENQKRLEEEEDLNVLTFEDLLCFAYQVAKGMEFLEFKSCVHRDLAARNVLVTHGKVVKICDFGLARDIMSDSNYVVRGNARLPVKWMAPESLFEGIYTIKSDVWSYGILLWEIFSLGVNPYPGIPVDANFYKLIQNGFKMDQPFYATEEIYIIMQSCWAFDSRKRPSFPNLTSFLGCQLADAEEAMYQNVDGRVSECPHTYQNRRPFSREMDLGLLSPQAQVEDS"}, "[2]": {"biological_target": "T2, FLT3 (FMS-like tyrosine kinase 3) (Homo sapiens, UniProt P36888, D835H)", "T2 construct": "catalytic domain of FLT3 D835H", "T2 sequence (P36888 564-993 D835H limits assumed)": "T1 sequence (P36888 564-993 limits assumed) with D272H"}, "[3]": {"biological_target": "T3, FLT3 (FMS-like tyrosine kinase 3) (Homo sapiens, UniProt P36888, D835Y)", "T3 construct": "catalytic domain of FLT3 D835Y", "T3 sequence (P36888 564-993 D835Y limits assumed)": "T1 sequence (P36888 564-993 limits assumed) with D272Y"}}, "note": "Numbering of substitutions follows the chain as printed."}
{"smiles": "CCN(CC)CCNC(=O)c1c(C)[nH]c(/C=C2\\C(=O)Nc3ccc(Cl)cc32)c1C", "note": "[SU11652]", "values": [{"measurement": "IC50", "setting": "[1]", "result": "~1.5", "unit": "nM"}, {"measurement": "IC50", "setting": "[2]", "result": 32, "unit": "nM"}, {"measurement": "IC50", "setting": "[3]", "result": 16, "unit": "nM"}]}
